This is an account of results in EP0912195B1, “VACCINE COMPRISING ANTIGENS BOUND TO CARRIERS THROUGH LABILE BONDS” (PEPSCAN SYSTEMS B.V., priority 1996, dated 1997).

The conditions of the data set: 3 hours.

Residues, ends and D or L forms follow the SMILES beside them. *: point of attachment. Palmitoyl = CCCCCCCCCCCCCCCC(=O)*

Take `CCCCCCCCCCCCCCCC(=O)SC[C@H](NC(C)=O)C(=O)N[C@@H](CO)C(=O)N[C@@H](CCC(=O)O)C(=O)N[C@H](C(=O)N[C@@H](Cc1ccccc1)C(=O)N[C@@H](CCCNC(=N)N)C(=O)N1CCC[C@H]1C(=O)NCC(=O)NCC(=O)NCC(=O)N[C@@H](CC(=O)O)C(=O)N[C@@H](CCSC)C(=O)N[C@@H](CCCNC(=N)N)C(N)=O)[C@@H](C)CC` [Ac-C(palm)SEIFRPGGGDMR-NH2] (Ac-C(Palmitoyl)SEIFRPGGGDMR-NH2): the “stability of thioesters during acidolytic removal of tert-butyloxy functions and/or cleavage of the resin-peptide bond” value is reported as “stable under all these acidic conditions”.
With `CCCCCCCCCCCCCCCC(=O)SC[C@H](NC(C)=O)C(=O)N[C@H](C(=O)N[C@@H](C)C(=O)N[C@H](C(=O)N[C@@H](CCC(N)=O)C(=O)N[C@@H](CC(C)C)C(=O)N1CCC[C@H]1C(=O)N[C@@H](C)C(=O)N[C@@H](CO)C(=O)N[C@@H](Cc1ccccc1)C(N)=O)[C@@H](C)O)C(C)C` [Ac-C(palm)VATQLPASF-NH2] (Ac-C(Palmitoyl)VATQLPASF-NH2), the “stability of thioesters during acidolytic removal of tert-butyloxy functions and/or cleavage of the resin-peptide bond” value is given as “stable under all these acidic conditions”.
